Here are results for 25 compounds from US8299070B2, “Indole compounds and pharmaceutical use thereof” (Japan Tobacco Inc., priority 2009, dated 2012).

The first assay concerns the target T1, hITK enzyme (FLAG-tagged full-length hITK) (Homo sapiens, UniProt Q08881).
T1 construct: strongly expressing FLAG-tagged full-length hITK in Sf9 cells; FLAG; made in house; host or cells: Sf9 insect cells (ITK); Escherichia coli (GST-SLP76 substrate)
T1 sequence (Q08881 1-620): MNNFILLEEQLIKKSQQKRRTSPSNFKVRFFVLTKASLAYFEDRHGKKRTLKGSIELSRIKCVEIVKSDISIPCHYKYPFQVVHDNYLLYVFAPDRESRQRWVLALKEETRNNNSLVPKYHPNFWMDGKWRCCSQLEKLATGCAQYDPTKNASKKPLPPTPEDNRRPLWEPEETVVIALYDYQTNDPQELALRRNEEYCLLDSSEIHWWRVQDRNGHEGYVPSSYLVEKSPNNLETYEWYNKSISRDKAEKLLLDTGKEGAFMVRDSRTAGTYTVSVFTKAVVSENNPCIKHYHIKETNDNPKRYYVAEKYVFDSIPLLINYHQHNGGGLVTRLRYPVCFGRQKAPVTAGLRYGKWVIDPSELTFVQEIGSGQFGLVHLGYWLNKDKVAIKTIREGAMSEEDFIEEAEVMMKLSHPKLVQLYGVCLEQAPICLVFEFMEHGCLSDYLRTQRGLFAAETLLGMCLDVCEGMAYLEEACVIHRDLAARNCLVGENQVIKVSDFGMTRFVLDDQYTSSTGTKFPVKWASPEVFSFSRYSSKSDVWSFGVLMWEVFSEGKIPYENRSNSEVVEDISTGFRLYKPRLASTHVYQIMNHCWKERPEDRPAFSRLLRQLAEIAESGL
Description: ITK inhibitory activity (HTRF kinase assay, biotinylated GST-SLP76 substrate). It counts as biochemical. Particulars: ATP concentration of the substrate solution 6 μmol/L (Examples 380 and 381). An outline of the steps: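 Sf9-expressed hITK (50 ng/mL enzyme solution) reacted 10 min at RT in MOPS pH 7.0, 10 mmol/L MgCl2, 1 mmol/L DTT with E. coli SLP76 aa95–175 substrate; substrate solution held 100 µmol/L ATP (6 µmol/L for selected compounds). HTRF 665/620 ratio, blank-corrected; IC50 interpolated between two concentrations bracketing 50% inhibition.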
A general note: TR-FRET usually uses a lanthanide donor and a delayed reading to cut background.
`CC(NCCOCC(=O)O)C(=O)N(C)c1ccc2cc(-c3n[nH]c4c3CCC(C)(C)C4)[nH]c2c1` (stereo not shown) [Example 380]: the IC50 worked out at 2 nM.

Still in this assay, the particulars now being: IC50 calculated from the 2 test compound concentrations sandwiching 50% ITK inhibitory rate.
As to `CCN(C(=O)CC1CCC(OC)CC1)c1ccc2cc(-c3n[nH]c4c3CCC(C)(C)C4)[nH]c2c1` (stereo not shown) [Example 273], the IC50 was 11 nM. For the compound `CCC(=O)N(C)c1ccc2cc(-c3n[nH]c4c3CCC(C)(C)C4)[nH]c2c1` [Example 32], the IC50 is 4 nM. For `CCC(=O)N(C)c1ccc2cc(-c3n[nH]c4c3CC(OC)CC4)[nH]c2c1` (stereo not shown) [Example 368], the IC50 was 131 nM. For the compound `CC(N(C)C(=O)c1ccc2cc(-c3n[nH]c4c3CCC(C)(C)C4)[nH]c2c1)C(C)(C)C` (stereo not shown) [Example 18], the half-inhibitory concentration (IC50) was 45 nM. Turning to `CC(C)OCC(=O)N(C)c1ccc2cc(-c3n[nH]c4c3CCC(C)(C)C4)[nH]c2c1` [Example 56], the 50% inhibitory concentration (IC50) was below 3 nM. Take `CC(C(=O)N(C)c1ccc2cc(-c3n[nH]c4c3CCC(C)(C)C4)[nH]c2c1)N1C[C@@H](C)O[C@@H](C)C1` (stereo partly shown) [Example 121]: the IC50 was 5 nM. For `CCC(=O)N(C)c1ccc2cc(-c3n[nH]c4c3CC(O)CC4)[nH]c2c1` (stereo not shown) [Example 365], the IC50 is 45 nM.

Consider `CC(C(=O)N(C)c1ccc2cc(-c3n[nH]c4c3CCC(C)(C)C4)[nH]c2c1)C1CCCCC1` (stereo not shown) [Example 97], for which the IC50 is 20 nM. `CN1CCN(CC(=O)N(C)c2ccc3cc(-c4n[nH]c5c4CCC(C)(C)C5)[nH]c3c2)C1=O` [Example 186]: the IC50 was 1 nM. Still for that read-out and setting: under `CC1CCN(CC(=O)N(CCO)c2ccc3cc(-c4n[nH]c5c4CCC(C)(C)C5)[nH]c3c2)C1=O` (stereo not shown) [Example 257] stands 1 nM; under `CCN(C(=O)CN1CCOC(C)C1=O)c1ccc2cc(-c3n[nH]c4c3CCC(C)(C)C4)[nH]c2c1` (stereo not shown) [Example 260], below 1 nM; under `COC(C)(C)C(=O)N(C)c1ccc2cc(-c3n[nH]c4c3CCC(C)(C)C4)[nH]c2c1` [Example 42], 22 nM. On to `CC1(C)CCc2c(-c3cc4ccc(N5CCC(CO)(C6CCCCC6)C5=O)cc4[nH]3)n[nH]c2C1` (stereo not shown) [Example 251], for which the IC50 is 34 nM. With `CN(C(=O)CO)c1ccc2[nH]c(-c3n[nH]c4c3CCC(C)(C)C4)cc2c1` [Example 343], the IC50 was 135 nM.

Regarding `CN(C(=O)CN1CCOCC1=O)c1ccc2cc(-c3n[nH]c4c3CCC(C)(C)C4)[nH]c2c1` [Example 6, N-[2-(6,6-dimethyl-4,5,6,7-tetrahydro-1H-indazol-3-yl)-1H-indol-6-yl]-N-methyl-2-(3-oxomorpholin-4-yl)acetamide], the half-inhibitory concentration (IC50) was 2 nM.

In the case of `CN(C(=O)CN1CCCC(C)(C)C1=O)c1ccc2cc(-c3n[nH]c4c3CCC(C)(C)C4)[nH]c2c1` [Example 174], the half-maximal inhibitory concentration (IC50) is 2 nM. For `COC1CCc2[nH]nc(-c3cc4ccc(N(C)C(=O)c5ccccc5)cc4[nH]3)c2C1` (stereo not shown) [Example 370], the IC50 is 204 nM. The same measure, in the same setting: under `C[C@@H](C(=O)Nc1ccc2cc(-c3n[nH]c4c3CCC(C)(C)C4)[nH]c2c1)N1CCOCC1` [Example 375] stands 110 nM. Take `CN(C(=O)c1ccc2[nH]c(-c3n[nH]c4c3CCC(C)(C)C4)cc2c1)c1ccccc1` [Example 295]: the IC50 was 138 nM. For the compound `CN(C(=O)C(O)COC1CCCC1)c1ccc2cc(-c3n[nH]c4c3CCC(C)(C)C4)[nH]c2c1` (stereo not shown) [Example 131], the concentration for half-maximal inhibition (IC50) is 25 nM. Take `CN(C(=O)CC1CCCCC1)c1ccc2cc(-c3n[nH]c4c3CCC(C)(C)C4)[nH]c2c1` [Example 72]: the IC50 was 9 nM. For the compound `CCC(=O)N(C)c1ccc2[nH]c(-c3n[nH]c4c3CCC(C)(C)C4)cc2c1` [Example 340], the IC50 was 129 nM. Consider `C[C@@H](C(=O)N(C)c1ccc2cc(-c3n[nH]c4c3CCC(C)(C)C4)[nH]c2c1)N1CCOCC1` [Example 4, (S)—N-[2-(6,6-dimethyl-4,5,6,7-tetrahydro-1H-indazol-3-yl)-1H-indol-6-yl]-N-methyl-2-(morpholin-4-yl)propionamide], for which the IC50 was 2 nM.

With `C[C@@H](C(=O)N(C)c1ccc2cc(-c3n[nH]c4c3CCC(C)(C)C4)[nH]c2c1)N(C)C(=O)C1CC1` [Example 205], the half-inhibitory concentration (IC50) was 27 nM.

For orientation: IC50 means the concentration that inhibits the measured activity by half.
